Experimental data: ChEMBL document CHEMBL2440076, “New triarylpyrazoles as broad-spectrum anticancer agents: design, synthesis, and biological evaluation” (Eur J Med Chem, 2013)

Key:
Type in all cases: functional
CAKI-1 [1] = assay: Growth inhibition of human CAKI-1 cells assessed as cell growth at 3X10'-5 M after 48 hrs by sulforhodamine B assay; conditions: CAKI-1, 48 h, read-out: Activity
COLO 205 = assay: Growth inhibition of human COLO205 cells assessed as cell growth at 3X10'-7 M after 48 hrs by sulforhodamine B assay; conditions: COLO 205, 48 h, read-out: Activity
OVCAR-3 = assay: Growth inhibition of human OVCAR3 cells assessed as cell growth at 3X10'-6 M after 48 hrs by sulforhodamine B assay; conditions: OVCAR-3, 48 h, read-out: Activity
SK-OV-3 = assay: Growth inhibition of human SKOV3 cells assessed as cell growth at 3X10'-6 M after 48 hrs by sulforhodamine B assay; conditions: SK-OV-3, 48 h, read-out: Activity
NCI-H522 = assay: Growth inhibition of human NCI-H522 cells assessed as cell growth at 3X10'-7 M after 48 hrs by sulforhodamine B assay; conditions: NCI-H522, 48 h, read-out: Activity
KM12 [2] = assay: Growth inhibition of human KM12 cells assessed as cell growth at 3X10'-8 M after 48 hrs by sulforhodamine B assay; conditions: KM12, 48 h, read-out: Activity
HOP-92 = assay: Growth inhibition of human HOP92 cells assessed as cell growth at 3X10'-5 M after 48 hrs by sulforhodamine B assay; conditions: HOP-92, 48 h, read-out: Activity
RXF 393 = assay: Growth inhibition of human RXF393 cells assessed as cell growth at 3X10'-6 M after 48 hrs by sulforhodamine B assay; conditions: RXF 393, 48 h, read-out: Activity
U-251 = assay: Growth inhibition of human U251 cells assessed as cell growth at 3X10'-9 M after 48 hrs by sulforhodamine B assay; conditions: U-251, 48 h, read-out: Activity
SK-MEL-5 = assay: Growth inhibition of human SK-MEL-5 cells assessed as cell growth at 3X10'-6 M after 48 hrs by sulforhodamine B assay; conditions: SK-MEL-5, 48 h, read-out: Activity
NCI-H226 = assay: Growth inhibition of human NCI-H226 cells assessed as cell growth at 3X10'-6 M after 48 hrs by sulforhodamine B assay; conditions: NCI-H226, 48 h, read-out: Activity
A498 = assay: Growth inhibition of human A498 cells assessed as cell growth at 3X10'-5 M after 48 hrs by sulforhodamine B assay; conditions: A498, 48 h, read-out: Activity
NCI-H460 [3] = assay: Growth inhibition of human NCI-H460 cells assessed as cell growth at 3X10'-8 M after 48 hrs by sulforhodamine B assay; conditions: NCI-H460, 48 h, read-out: Activity
OVCAR-8 = assay: Growth inhibition of human OVCAR8 cells assessed as cell growth at 3X10'-9 M after 48 hrs by sulforhodamine B assay; conditions: OVCAR-8, 48 h, read-out: Activity
HT-29 = assay: Growth inhibition of human HT-29 cells assessed as cell growth at 3X10'-8 M after 48 hrs by sulforhodamine B assay; conditions: HT-29, 48 h, read-out: Activity
NCI-H460 [4] = assay: Growth inhibition of human NCI-H460 cells assessed as cell growth at 3X10'-5 M after 48 hrs by sulforhodamine B assay; conditions: NCI-H460, 48 h, read-out: Activity
786-0 = assay: Growth inhibition of human 786-0 cells assessed as cell growth at 3X10'-8 M after 48 hrs by sulforhodamine B assay; conditions: 786-0, 48 h, read-out: Activity
KM12 [5] = assay: Growth inhibition of human KM12 cells assessed as cell growth at 3X10'-7 M after 48 hrs by sulforhodamine B assay; conditions: KM12, 48 h, read-out: Activity
MDA-MB-468 = assay: Growth inhibition of human MDA-MB-468 cells assessed as cell growth at 3X10'-6 M after 48 hrs by sulforhodamine B assay; conditions: MDA-MB-468, 48 h, read-out: Activity
CAKI-1 [6] = assay: Growth inhibition of human CAKI-1 cells assessed as cell growth at 3X10'-8 M after 48 hrs by sulforhodamine B assay; conditions: CAKI-1, 48 h, read-out: Activity
DU-145 = assay: Growth inhibition of human DU145 cells assessed as cell growth at 3X10'-5 M after 48 hrs by sulforhodamine B assay; conditions: DU-145, 48 h, read-out: Activity
MDA-MB-231 = assay: Growth inhibition of human MDA-MB-231 cells assessed as cell growth at 3X10'-9 M after 48 hrs by sulforhodamine B assay; conditions: MDA-MB-231, 48 h, read-out: Activity
SF-268 [7] = assay: Growth inhibition of human SF268 cells assessed as cell growth at 3X10'-5 M after 48 hrs by sulforhodamine B assay; conditions: SF-268, 48 h, read-out: Activity
M14 = assay: Growth inhibition of human M14 cells assessed as cell growth at 3X10'-7 M after 48 hrs by sulforhodamine B assay; conditions: M14, 48 h, read-out: Activity
SF-539 = assay: Growth inhibition of human SF539 cells assessed as cell growth at 3X10'-5 M after 48 hrs by sulforhodamine B assay; conditions: SF-539, 48 h, read-out: Activity
UACC-257 = assay: Growth inhibition of human UACC257 cells assessed as cell growth at 3X10'-7 M after 48 hrs by sulforhodamine B assay; conditions: UACC-257, 48 h, read-out: Activity
PC-3 = assay: Growth inhibition of human PC3 cells assessed as cell growth at 3X10'-5 M after 48 hrs by sulforhodamine B assay; conditions: PC-3, 48 h, read-out: Activity
HOP-62 = assay: Growth inhibition of human HOP62 cells assessed as cell growth at 3X10'-5 M after 48 hrs by sulforhodamine B assay; conditions: HOP-62, 48 h, read-out: Activity
SF-268 [8] = assay: Growth inhibition of human SF268 cells assessed as cell growth at 3X10'-7 M after 48 hrs by sulforhodamine B assay; conditions: SF-268, 48 h, read-out: Activity
SK-MEL-2 = assay: Growth inhibition of human SK-MEL-2 cells assessed as cell growth at 3X10'-5 M after 48 hrs by sulforhodamine B assay; conditions: SK-MEL-2, 48 h, read-out: Activity
HCT-15 = assay: Growth inhibition of human HCT15 cells assessed as cell growth at 3X10'-5 M after 48 hrs by sulforhodamine B assay; conditions: HCT-15, 48 h, read-out: Activity
SNB-19 = assay: Growth inhibition of human SNB19 cells assessed as cell growth at 3X10'-6 M after 48 hrs by sulforhodamine B assay; conditions: SNB-19, 48 h, read-out: Activity
SR = assay: Growth inhibition of human SR cells assessed as cell growth at 3X10'-7 M after 48 hrs by sulforhodamine B assay; conditions: read-out: Activity

## COc1cc(-c2nn(-c3cccc(NC(=O)c4ccc(Cl)c(C(F)(F)F)c4)c3)cc2-c2ccncc2)ccc1Cl
CAKI-1 [1]
  growth at 30 µM: 12%
COLO 205
  growth at 0.3 µM: 99%
OVCAR-3
  growth at 3 µM: 43%
SK-OV-3
  growth at 3 µM: 71%
NCI-H522
  growth at 0.3 µM: 89%
KM12 [2]
  growth at 0.03 µM: 96%
HOP-92
  growth at 30 µM: -8%
RXF 393
  growth at 3 µM: 36%
U-251
  growth at 0.003 µM: 96%
SK-MEL-5
  growth at 3 µM: 24%
NCI-H226
  growth at 3 µM: 59%
A498
  growth at 30 µM: -9%
NCI-H460 [3]
  growth at 0.03 µM: 104%
OVCAR-8
  growth at 0.003 µM: 100%
HT-29
  growth at 0.03 µM: 99%
NCI-H460 [4]
  growth at 30 µM: 7%
786-0
  growth at 0.03 µM: 96%
KM12 [5]
  growth at 0.3 µM: 95%
MDA-MB-468
  growth at 3 µM: 52%
CAKI-1 [6]
  growth at 0.03 µM: 93%
DU-145
  growth at 30 µM: 10%
MDA-MB-231
  growth at 0.003 µM: 99%
SF-268 [7]
  growth at 30 µM: 23%
M14
  growth at 0.3 µM: 94%
SF-539
  growth at 30 µM: -15%
UACC-257
  growth at 0.3 µM: 90%
PC-3
  growth at 30 µM: 11%
HOP-62
  growth at 30 µM: 35%
SF-268 [8]
  growth at 0.3 µM: 89%
SK-MEL-2
  growth at 30 µM: -10%
HCT-15
  growth at 30 µM: 25%
SNB-19
  growth at 3 µM: 66%
SR
  growth at 0.3 µM: 82%

## O=C(Nc1cccc(-n2cc(-c3ccncc3)c(-c3ccc(Cl)c(O)c3)n2)c1)Nc1ccc(Cl)c(Cl)c1
CAKI-1 [1]
  growth at 30 µM: -9%
COLO 205
  growth at 0.3 µM: 104%
OVCAR-3
  growth at 3 µM: -1%
SK-OV-3
  growth at 3 µM: 13%
NCI-H522
  growth at 0.3 µM: 97%
KM12 [2]
  growth at 0.03 µM: 92%
HOP-92
  growth at 30 µM: -31%
RXF 393
  growth at 3 µM: 16%
U-251
  growth at 0.003 µM: 98%
SK-MEL-5
  growth at 3 µM: -73%
NCI-H226
  growth at 3 µM: 28%
A498
  growth at 30 µM: -26%
NCI-H460 [3]
  growth at 0.03 µM: 105%
OVCAR-8
  growth at 0.003 µM: 103%
HT-29
  growth at 0.03 µM: 104%
NCI-H460 [4]
  growth at 30 µM: -58%
786-0
  growth at 0.03 µM: 96%
KM12 [5]
  growth at 0.3 µM: 90%
MDA-MB-468
  growth at 3 µM: 2%
CAKI-1 [6]
  growth at 0.03 µM: 94%
DU-145
  growth at 30 µM: 9%
MDA-MB-231
  growth at 0.003 µM: 102%
SF-268 [7]
  growth at 30 µM: -21%
M14
  growth at 0.3 µM: 96%
SF-539
  growth at 30 µM: -34%
UACC-257
  growth at 0.3 µM: 93%
PC-3
  growth at 30 µM: 1%
HOP-62
  growth at 30 µM: -13%
SF-268 [8]
  growth at 0.3 µM: 102%
SK-MEL-2
  growth at 30 µM: -50%
HCT-15
  growth at 30 µM: -1%
SNB-19
  growth at 3 µM: 23%
SR
  growth at 0.3 µM: 97%

## O=C(Nc1cccc(-n2cc(-c3ccncc3)c(-c3ccc(Cl)c(O)c3)n2)c1)Nc1cccc(C(F)(F)F)c1
CAKI-1 [1]
  growth at 30 µM: 2%
COLO 205
  growth at 0.3 µM: 109%
OVCAR-3
  growth at 3 µM: 10%
SK-OV-3
  growth at 3 µM: 58%
NCI-H522
  growth at 0.3 µM: 98%
KM12 [2]
  growth at 0.03 µM: 95%
HOP-92
  growth at 30 µM: -33%
RXF 393
  growth at 3 µM: 49%
U-251
  growth at 0.003 µM: 100%
SK-MEL-5
  growth at 3 µM: 17%
NCI-H226
  growth at 3 µM: 66%
A498
  growth at 30 µM: 15%
NCI-H460 [3]
  growth at 0.03 µM: 101%
OVCAR-8
  growth at 0.003 µM: 99%
HT-29
  growth at 0.03 µM: 99%
NCI-H460 [4]
  growth at 30 µM: -1%
786-0
  growth at 0.03 µM: 96%
KM12 [5]
  growth at 0.3 µM: 97%
MDA-MB-468
  growth at 3 µM: 17%
CAKI-1 [6]
  growth at 0.03 µM: 94%
DU-145
  growth at 30 µM: 9%
MDA-MB-231
  growth at 0.003 µM: 103%
SF-268 [7]
  growth at 30 µM: -17%
M14
  growth at 0.3 µM: 100%
SF-539
  growth at 30 µM: -43%
UACC-257
  growth at 0.3 µM: 92%
PC-3
  growth at 30 µM: -3%
HOP-62
  growth at 30 µM: 9%
SF-268 [8]
  growth at 0.3 µM: 96%
SK-MEL-2
  growth at 30 µM: -32%
HCT-15
  growth at 30 µM: 6%
SNB-19
  growth at 3 µM: 36%
SR
  growth at 0.3 µM: 100%

## O=C(Nc1cccc(-n2cc(-c3ccncc3)c(-c3ccc(Cl)c(O)c3)n2)c1)Nc1ccc(Cl)c(C(F)(F)F)c1
CAKI-1 [1]
  growth at 30 µM: -25%
COLO 205
  growth at 0.3 µM: 101%
OVCAR-3
  growth at 3 µM: -24%
SK-OV-3
  growth at 3 µM: 22%
NCI-H522
  growth at 0.3 µM: 82%
KM12 [2]
  growth at 0.03 µM: 103%
HOP-92
  growth at 30 µM: -63%
RXF 393
  growth at 3 µM: -28%
U-251
  growth at 0.003 µM: 98%
SK-MEL-5
  growth at 3 µM: -81%
NCI-H226
  growth at 3 µM: 30%
A498
  growth at 30 µM: -49%
NCI-H460 [3]
  growth at 0.03 µM: 100%
OVCAR-8
  growth at 0.003 µM: 100%
HT-29
  growth at 0.03 µM: 107%
NCI-H460 [4]
  growth at 30 µM: -41%
786-0
  growth at 0.03 µM: 102%
KM12 [5]
  growth at 0.3 µM: 96%
MDA-MB-468
  growth at 3 µM: -27%
CAKI-1 [6]
  growth at 0.03 µM: 91%
DU-145
  growth at 30 µM: -58%
MDA-MB-231
  growth at 0.003 µM: 92%
SF-268 [7]
  growth at 30 µM: -20%
M14
  growth at 0.3 µM: 94%
SF-539
  growth at 30 µM: -37%
UACC-257
  growth at 0.3 µM: 93%
PC-3
  growth at 30 µM: -19%
HOP-62
  growth at 30 µM: -17%
SF-268 [8]
  growth at 0.3 µM: 93%
SK-MEL-2
  growth at 30 µM: -76%
HCT-15
  growth at 30 µM: -2%
SNB-19
  growth at 3 µM: 9%
SR
  growth at 0.3 µM: 81%
